One series deals with T1, human A2B receptor (Homo sapiens, UniProt P29275).
T1 construct: expressed in transfected cells; membranes prepared from the cells
T1 sequence (P29275 1-332): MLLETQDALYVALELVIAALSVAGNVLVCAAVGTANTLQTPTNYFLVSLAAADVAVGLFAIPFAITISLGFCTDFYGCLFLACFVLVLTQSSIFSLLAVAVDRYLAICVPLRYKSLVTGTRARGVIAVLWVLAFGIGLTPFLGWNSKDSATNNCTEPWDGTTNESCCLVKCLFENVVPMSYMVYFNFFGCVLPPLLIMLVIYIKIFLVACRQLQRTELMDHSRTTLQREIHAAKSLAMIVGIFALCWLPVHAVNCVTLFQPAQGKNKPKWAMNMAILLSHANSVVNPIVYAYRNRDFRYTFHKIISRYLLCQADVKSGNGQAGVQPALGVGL
Briefly: Radioligand binding assay ([3H]-DPCPX competition), membranes of HEK293 stably expressing human A2B receptor. The settings on record: for selectivity for the A2B receptor relative to the A1, A2A, and A3 receptor: fold selectivity A2B over A1, A2A and A3 receptors. The source says:
Materials. [^3H]—DPCPX [cyclopentyl-1,3-dipropylxanthine] (120 Ci/mmol) was purchased from New England Nuclear (Boston, Mass.). The adenosine deaminase and complete protease inhibitor cocktail tablets were purchased from Boehringer Mannheim Corp. (Indianapolis, Ind.). Cell culture reagents were from Life Technologies (Grass Island, N.Y.) except for serum that was from Hyclone (Logan, Utah).
Cell line. HEK293 stably expressing the human A2B receptor were used for radioligand binding assays. Cells were grown in DMEM Glutamax containing 10% FBS, 0.2 mg/ml G418 at 37° C. in 5% CO2/95% atmosphere.
Membrane Preparation. Cells were washed with cold PBS buffer twice, scraped off the plates, and centrifuged at 1000×g for 5 minutes. Cells were homogenized with ice-cold buffer of 5 mM Tris, pH 7.4, 5 mM EDTA, 5 mM EGTA, protease inhibitor cocktail tablets and incubated for 10 min on ice. The homogenate was centrifuged at 32,000×g for 30 min. The membranes were resuspended in buffer of 50 mM Tris, pH 7.4, 0.6 mM EDTA, 5 mM MgCl2, stored at −80° C. until use. Protein concentration was determined by the methods of Bradford.
Radioligand binding assay. Membranes were homogenized in buffer containing 10 mM HEPES-KOH, pH 7.4 containing 1.0 mM EDTA; 2 U/ml adenosine deaminase; and 0.1 mM Benzamidine and incubated for 30 min at room temperature. Dissociation constants of radioligand (Kd values) and maximum binding sites (Bmax) were determined in saturation binding experiments. Saturation binding assays were carried out in a reaction mixture containing 50 μl of membrane suspension, 25 μl of 4% DMSO, 25 μl of increasing amounts of radioligand, [^3H]—DPCPX (final concentration 1-200 nM). […] Nonspecific binding was measured in the presence of […] NECA. Compounds were dissolved in
DMSO and then diluted with 4% DMSO; the final maximum DMSO concentrations were 1%. […] Reactions were terminated by rapid filtration over GF/C filters using a cell harvester. The filters were washed ten times with 0.4 ml of ice-cold buffer containing 10 mM HEPES-KOH, pH 7.4. The filters were dried, covered with scintillation fluid and counted with a TopCount.

These results are taken from patent publication US20030229067A1, “Pyrrolopyrimidine A2b selective antagonist compounds, their synthesis and use” (priority 2001, published 2003).

In the case of `CC(=O)NCCNc1nc(-c2ccccc2)nc2[nH]c(C(=O)N3CCC(C#N)(c4ccccc4Cl)CC3)cc12` [26.237, N-(2-{6-[4-(2-Chlorophenyl)-4-cyanopiperidine-1-carbonyl]-2-phenyl-7H-pyrrolo[2,3-d]pyrimidin-4-ylamino}-ethyl)-acetamide], the “selectivity for the A2B receptor relative to the A1, A2A, and A3 receptor” value at human A2B receptor (binding assays) was 57 ×.
Same read-out and setting: then `CC(=O)NCCNc1nc(-c2ccccc2)nc2[nH]c(COC3CCN(CCc4ccccc4Cl)CC3)cc12.CS(=O)(=O)O` [17.7.MsOH, N-[2-(-6-{1-[2-(2-Chlorophenyl)ethyl]piperidine-4-yloxymethyl}-2-phenyl-7H-pyrrolo[2,3-d]pyrimidin-4-ylamino)ethyl]acetamide methanesulfonic acid salt], with 24 ×.
Broadly, the melting point is the temperature, or range, at which the solid turns liquid. The molecule `COC1(c2ccccc2Cl)CCN(C(=O)c2cc3c(NCCNC(C)=O)nc(-c4ccccc4)nc3[nH]2)CC1` [26.42, N-(2-{6-[4-(2-Chlorophenyl)-4-methoxypiperidine-1-carbonyl]-2-phenyl-7H-pyrrolo[2,3-d]pyrimidin-4-ylamino}-ethyl)-acetamide] had a melting point of 201 to 202 °C. On human A2B receptor (binding assays), the “selectivity for the A2B receptor relative to the A1, A2A, and A3 receptor” value is listed as 57 ×.
One may read the Ki as a measure of affinity in units of concentration, obtained from inhibition or displacement. A low value points to a stronger hold on the target. The molecule `CC(=O)NCCNc1nc(-c2ccccc2)nc2[nH]c(COC3CCN(CCc4ccccc4Cl)CC3)cc12` [17.7, N-[2-(6-{1-[2-(2-Chlorophenyl)ethyl]piperidin-4-yloxymethyl}-2-phenyl-7H-pyrrolo[2,3-d]pyrimidin-4-ylamino)ethyl]acetamide] came in with an inhibition constant (Ki) on human A2B receptor ([3H]-DPCPX competition binding) of 5 nM. In addition, the “selectivity for the A2B receptor relative to the A1, A2A, and A3 receptor” value on human A2B receptor (binding assays) was 26 ×.
Consider `CC(=O)NCCNc1nc(-c2ccccc2)nc2[nH]c(C(=O)N3CCN(CCCc4ccc(Cl)cc4)CC3)cc12.CS(=O)(=O)O` [26.135.MsOH, N-[2-(6-{4-[3-(4-Chlorophenyl)-propyl]-piperazine-1-carbonyl}-2-phenyl-7H-pyrrolo[2,3-d]pyrimidin-4-ylamino)-ethyl]-acetamide methanesulfonate salt], for which the “selectivity for the A2B receptor relative to the A1, A2A, and A3 receptor” value at human A2B receptor (binding assays) is reported as 17 ×.
Same read-out and setting: the same measure for `CC(=O)NCCNc1nc(-c2ccccc2)nc2[nH]c(C(=O)N3CCC(C#N)(c4ccccc4Cl)CC3)cc12.CS(=O)(=O)O` [26.237.MsOH, N-(2-{6-[4-(2-Chlorophenyl)4-cyanopiperidine-1-carbonyl]-2-phenyl-7H-pyrrolo[2,3-d]pyrimidin-4-ylamino}-ethyl)-acetamide methanesulfonic acid salt]: 33 ×.
Same read-out and setting: then `CC(=O)NCCNc1nc(-c2ccccc2)nc2[nH]c(C(=O)N3CCN(CCCc4ccc(Cl)cc4)CC3)cc12` [26.135, N-[2-(6-{4-[3-(4-Chlorophenyl)-propyl]-piperazine-1-carbonyl}-2-phenyl-7H-pyrrolo[2,3-d]pyrimidin-4-ylamino)-ethyl]-acetamide], with 19 ×.
For `CC(=O)NCCNc1nc(-c2ccccc2)nc2[nH]c(C(=O)N3C[C@@H](C)N(CCc4ccccc4)[C@@H](C)C3)cc12` [26.33, N-{2-[6-(cis-3,5-Dimethyl-4-phenethylpiperazine-1-carbonyl)-2-phenyl-7H-pyrrolo[2,3-d]pyrimidin-4-ylamino]-ethyl}-acetamide], the melting point is 110 to 115 °C (dec.).
On to `CC(=O)NCCNc1nc(-c2ccccc2)nc2[nH]c(C(=O)N3CCN(c4ccc(Cl)cc4)CC3)cc12` [26.71, N-(2-{6-[4-(4-Chlorophenyl)-piperazine-1-carbonyl]-2-phenyl-7H-pyrrolo[2,3-d]pyrimidin-4-ylamino}-ethyl)-acetamide], for which the “receptor profile in words (selectivity listing)” value at human A2B receptor (binding assays, A2B vs A1, A2A, A3) was “A1/A2B dual antagonist”. Also, the “selectivity for the A2B receptor relative to the A1, A2A, and A3 receptor” value at human A2B receptor (binding assays) was determined as 82 ×.
In turn, `CC(=O)NCCNc1nc(-c2ccccc2)nc2[nH]c(C(=O)N3CCC(c4ccccc4)(c4ccccc4)CC3)cc12` [26.25, N-{2-[6-(4,4-Diphenylpiperidine-1-carbonyl)-2-phenyl-7H-pyrrolo[2,3-d]pyrimidin-4-ylamino]-ethyl}-acetamide] yielded a melting point of 254 to 256 °C.
On the same count and under the same terms, the same measure for `CC(=O)NCCNc1nc(-c2ccccc2)nc2[nH]c(C(=O)N3CCC(Cc4ccccc4)CC3)cc12` [26.54, N-{2-[6-(4-Benzylpiperidine-1-carbonyl)-2-phenyl-7H-pyrrolo[2,3-d]pyrimidin-4-ylamino]-ethyl}-acetamide]: 260 to 261 °C; for `CC(=O)NCCNc1nc(-c2ccccc2)nc2[nH]c(C(=O)N3C[C@@H](C)N[C@@H](C)C3)cc12` [26.22, N-{2-[6-(cis-3,5-Dimethylpiperazine-1-carbonyl)-2-phenyl-7H-pyrrolo[2,3-d]pyrimidin-4-ylamino]-ethyl}-acetamide]: 138 to 140 °C.
Same read-out and setting: the same measure for `CC(=O)NCCNc1nc(-c2ccccc2)nc2[nH]c(C(=O)N3CC=C(c4ccc(Cl)cc4)CC3)cc12` [26.13, N-(2-{6-[4-(4-Chlorophenyl)-3,6-dihydro-2H-pyridine-17carbonyl]-2-phenyl-7H-pyrrolo[2,3-d]pyrimidin-4-ylamino}-ethyl)-acetamide]: 172 to 175 °C; for `CC(=O)NCCNc1nc(-c2ccccc2)nc2[nH]c(C(=O)N3CCC(O)(c4cccc(C(F)(F)F)c4)CC3)cc12` [26.10]: 145 to 150 °C.
On the same count and under the same terms, then `CC(=O)NCCNc1nc(-c2ccccc2)nc2[nH]c(C(=O)N3CCN(c4ncccc4C(F)(F)F)CC3)cc12` [26.37, N-(2-{2-Phenyl-6-[4-(3-trifluoromethylpyridin-2-yl)-piperazine-1-carbonyl]-7H-pyrrolo[2,3-d]pyrimidin-4-ylamino}-ethyl)-acetamide], with 225 to 228 °C; and `CC(=O)NCCNc1nc(-c2ccccc2)nc2[nH]c(C(=O)N3CCC(O)(C(C)C)CC3)cc12` [26.4, N-{2-[6-(4-Hydroxy4-isopropylpiperidine-1-carbonyl)-2-phenyl-7H-pyrrolo[2,3-d]pyrimidin-4-ylamino]-ethyl}-acetamide], with 140 to 145 °C (dec.).
